Measured values as given in patent US6043283A, “Tyramine compounds and their neuronal effects” (priority 1997, dated 2000).
“Also recorded” adds a separate entry of the source. Read-outs that look alike come from different tables or passages of the source. Ends that are not written are not given here.

Columns and labels:
[1] = test system: NTox released by Aβ1-42-stimulated microglia (neuron killing); assay: cells; assay type: cell-based, rat; details: for neuroprotective effect: Aβ1-42-stimulated microglia; for protective effect: 10 μM, 72 hours, FIG. 30
Description: . Briefly, hippocampal cells obtained from embryonic stage 18 rat fetuses were dispersed mechanically in the presence of 0.125% trypsin and plated onto poly-L-lysine coated glass coverslips in 24 well plates at 250,000 cells per well (resulting in adhering cell densities of about 1250 cells per mm^2) in chemically-defined N2 culture media containing 5% fetal bovine serum. Gradual reduction of serum began on day 10 in vitro with daily 1:1 volume replacements with chemically-defined media, until a final concentration of 0.6% serum was achieved. […]; see FIG. 18). In order to eliminate microglia, cultures were exposed to saporin (sap; a ribosome-inactivating protein; Davis and Wiley, 1989) coupled to acetylated LDL (ac-LDL) at a concentration of 10 μg/ml for 12 hours. […] Cultures depleted of microglia were then exposed to test substances in the presence or absence of exogenous microglia (100,000 cells per culture). […]. Controls included cultures without saporin-treatment, cultures without test substances, and cultures with test substances but lacking microglia.
(§1) On day 14 of culture, immediately following saporin treatment, test substances were added to the hippocampal cultures. Synthetic peptide were supplied as 1 mM stock solutions in 0.1 M phosphate buffered saline, pH 7.2, stored for at least 1 week at 4° C. before use. After 72 hours incubation, the cultures were fixed in 4% paraformaldehyde at room temperature for 18 hours and immuno-stained by overnight incubation with a mixture of anti-neurofilament antibodies (NF; SMI-311, 1:600; Stemberger Monoclonals, Inc.) plus anti-MAP-2 (Boehringer Mannheim, 184959; 1:600) at 4° C. in the presence of 2% horse serum and 0.3% triton X-100 to delineate both neuronal cell bodies and neurites. Astroglia were visualized using sheep anti-glial fibrillary acidic protein (GFAP, Sigma) as described by Giulian et al., 1989. Finally, to label all cell nuclei, the coverslips were exposed to 0.01% bisbenzimide (Hoechst 33258; Sigma) in PBS, pH 6.9, and rinsed in distilled water and mounted in glycerin. Immuno-labeled cells per field and nuclei per field were scored at 200X magnification using fluorescence microscopy. Data were expressed as % mean survival expressed in terms of parallel untreated control cultures after scoring at least 20 randomly selected fields for each of 3 coverslips.
The procedures described above and by Giulian et al, 1996, provided for the identification of tyramine compounds as therapeutic agents for neurodegenerative diseases or disorders including, for example, Alzheimer's disease. Cells from the brain of fetal rats were grown in tissue cultures. Microglial populations within the cultures were controlled following the method described in Example 5 above. Known amounts of Aβ peptides coupled to microspheres were added to the culture. The Aβ spheres stimulated the microglia to release NTox, which in turn destroyed the neurons. The neurons in the cultures were monitored for survival by immuno-staining.
Generally, drug assays involve the addition of known concentrations of a test agent over a range of concentrations. After 72 hours, the experiment is stopped and the neurons are identified by immuno-staining. The data is expressed as % neuronal survival […]. Dose response curves are then used to estimate Effective Dose50 % (ED50) of neuroprotective agents. […].
In this experiment, about 65% of the neurons were destroyed by the Aβ-stimulated microglia. […] Other tyramine compounds, including tyrosine esters, were neuroprotective (FIG. 30).
Following the methods described herein, numerous compounds were examined to determine their neuroprotective activity. […]

[2] = test system: Aβ1-42-stimulated microglia; assay type: cell-based, rat; details: for effect of signal transduction inhibitors on microglia stimulated by Aβ1-42: 0.01 to 100 μM, FIG. 11
Description: Briefly, hippocampal cells obtained from embryonic stage 18 rat fetuses were dispersed mechanically in the presence of 0.125% trypsin and plated onto poly-L-lysine coated glass coverslips in 24 well plates at 250,000 cells per well (resulting in adhering cell densities of about 1250 cells per mm^2) in chemically-defined N2 culture media containing 5% fetal bovine serum. Gradual reduction of serum began on day 10 in vitro with daily 1:1 volume replacements with chemically-defined media, until a final concentration of 0.6% serum was achieved. […] In order to eliminate microglia, cultures were exposed to saporin (sap; a ribosome-inactivating protein; Davis and Wiley, 1989) coupled to acetylated LDL (ac-LDL) at a concentration of 10 μg/ml for 12 hours. […] Cultures depleted of microglia were then exposed to test substances in the presence or absence of exogenous microglia (100,000 cells per culture). […] Controls included cultures without saporin-treatment, cultures without test substances, and cultures with test substances but lacking microglia.
as §1

[3] = test system: human microglia stimulated with S5; assay type: cell-based;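 note: drugs applied at 10 µM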
[4] = test system: rat microglia / hippocampal neurons; details: rat microglia; mostly 1 μmole/l
microglia = assay: inhibition of SpheresAβ1-42 binding to microglia; set-up: species or system rat; details: for inhibition of SpheresAβ1-42 binding by peptides: 10 μmoles/l, 4 hours, 37° C.; for inhibition of SpheresAβ1-42 binding by GAGs and scavenger receptor ligands: heparin sulfate 50 μg/ml, dextran sulfate 500 μg/ml, ac-LDL 200 μg/ml
Experimental: Spheresmal-BSA (which bind to scavenger receptors) or SpheresAβ1-42 were incubated with microglia for 4 hours following pre-treatment of cells with trypsin (5000 units/ml at 37° C. for 60 min followed by inactivation with soybean trypsin inhibitor), with heparinase (heparin lyase EC 4.2.2.7; two consecutive treatments each of 0.01 units/ml for 60 min), or with chondroitinase ABC (chondroitin ABC lyase EC 4.3.3.4; two consecutive treatments each of 0.02 units/ml for 60 min). […] Microglia mixed with hippocampal neurons were treated with combinations of β-D-xyloside (1 mm), heparinase (0.02 units/ml), or chondroitinase (0.04 units/ml) and then exposed to plaques.
Each well then received 250,000 SpheresAβ1-42 or Spheresmal-BSA in the presence or absence of Aβ peptides, GAGs, or scavenger receptor ligands. Binding assays were carried out at 37° C. for 4 hours after which coverslips were dipped 10 times in phosphate buffer and fixed with 4% buffered paraformaldehyde. Microsphere adherence to cells was scored at 200 magnification with phase/fluorescence microscopy. Data, expressed as % inhibition of sphere binding, was calculated from total number of spheres per field noted for control cultures receiving spheres only. Values are based upon at least 3 coverslips from 2 independent experiments. […] Washed spheres were resuspended in 0.2 M borate buffer (pH 8.5) in the presence of 300 μg Aβ or 400 μg BSA in 6% DMSO. After overnight mixing at room temperature, the spheres were washed extensively and blocked by 1 M glycine (pH 8.0) for 30 minutes.

rat microglia = assay: binding of Aβ-coupled microspheres to microglia; details: 4 hours at 37° C. (72 h in FIG. 23)

Compound: CCCCOc1ccc(O)cc1 [4-butoxyphenol]
- neuroprotective activity (structure/function) ([1]; Example 14): little or no neuroprotective activity

Compound: NC(Cc1cc(O)c(O)cc1O)C(=O)O (stereo not drawn) [6--OH DOPA]
- neuroprotective activity (structure/function) ([1]; Example 14): little or no neuroprotective activity

Compound: NCCc1cc(O)c(O)cc1O [6--OH dopamine]
- neuroprotective activity (structure/function) ([1]; Example 14): little or no neuroprotective activity

Compound: NC(CCCCCP(=O)(O)O)C(=O)O (stereo not drawn) [AP7]
- drug blockade of neuron killing, rat microglia [2]: prevented neuronal loss; also recorded: blocked neuron death
- drug blockade of neuron killing, human microglia [3]: blocked neuron death

Compound: N[C@@H](Cc1ccc(O)c(O)c1)C(=O)O [DOPA]
- neuroprotective activity (structure/function) ([1]; Example 14): little or no neuroprotective activity

Compound: CC(=O)NCCc1ccc(O)cc1 [acetylated tyramine]
- neuroprotective activity (structure/function) [1]: little or no neuroprotective activity

Compound: CCN(CC)CCCC(C)Nc1ccnc2cc(Cl)ccc12 (stereo not drawn) [chloroquine]
- effect of immunosuppressive drugs on microglia stimulated by Aβ1-42 ([2]; 0.1 to 10 μM, FIG. 10): had a protective effect; also recorded: inhibit neuron killing

Compound: COc1c(C=O)c(O)cc2c1C(=O)c1ccccc1C2=O [damacanthal]
- effect of signal transduction inhibitors on microglia stimulated by Aβ1-42 [2]: had a protective effect

Compound: CC(C)(C)OC(=O)[C@@H](N)Cc1cc(I)c(O)c(I)c1 [di-iodinated tyrosine t-butyl ester]
- neuroprotective effect [1]: have neuroprotective effects
- neuroprotective activity (structure/function) ([1]; Example 14): enhance neuroprotective effects

Compound: NCCc1ccc(O)c(O)c1 [dopamine]
- neuroprotective activity (structure/function) [1]: little or no neuroprotective activity

Compound: CN[C@@H](C)[C@H](O)c1ccccc1 [ephedrine]
- neuroprotective activity (structure/function) ([1]; Example 14): little or no neuroprotective activity

Compound: CNC[C@H](O)c1ccc(O)c(O)c1 [epinephrine]
- neuroprotective activity (structure/function) [1]: little or no neuroprotective activity

Compound: O=c1c(-c2ccc(O)cc2)coc2cc(O)cc(O)c12 [genistein]
- effect of signal transduction inhibitors on microglia stimulated by Aβ1-42 [2]: had a protective effect

Compound: CC(C)(C)OC(=O)[C@@H](N)Cc1ccc(O)c(I)c1 [mono-iodinated tyrosine t-butyl ester]
- neuroprotective effect [1]: have neuroprotective effects
- neuroprotective activity (structure/function) ([1]; Example 14): enhance neuroprotective effects

Compound: NC[C@H](O)c1ccc(O)c(O)c1 [norepinephrine]
- neuroprotective activity (structure/function) ([1]; Example 14): little or no neuroprotective activity

Compound: NCCc1ccccc1 [phenethylamine]
- neuroprotective activity (structure/function) ([1]; Example 14): little or no neuroprotective activity

Compound: Nc1ccccc1N [phenylenediamine]
- neuroprotective activity (structure/function) ([1]; Example 14): little or no neuroprotective activity

Compound: Oc1cccc(O)c1 [resorcinol]
- neuroprotective activity (structure/function) ([1]; Example 14): little or no neuroprotective activity

Compound: NC(=O)[C@@H](N)Cc1ccc(O)cc1 [tyrosinamide]
- neuroprotective activity (structure/function) ([1]; Example 14): little or no neuroprotective activity

Compound: C=CCOC(=O)[C@@H](N)Cc1ccc(O)cc1 [tyrosine allyl ester]
- protective effect [1]: neuron survival was markedly enhanced
- neuroprotective activity (structure/function) ([1]; Example 14): enhance neuroprotective effects

Compound: CCOC(=O)[C@@H](N)Cc1ccc(O)cc1 [tyrosine ethyl ester]
- neuroprotective activity (structure/function) ([1]; Example 14): little or no neuroprotective activity

Compound: NNC(=O)[C@@H](N)Cc1ccc(O)cc1 [tyrosine hydrazide]
- neuroprotective activity (structure/function) ([1]; Example 14): little or no neuroprotective activity

Compound: COC(=O)[C@@H](N)Cc1ccc(O)cc1 [tyrosine methyl ester]
- neuroprotective activity (structure/function) ([1]; Example 14): little or no neuroprotective activity

Compound: N[C@@H](Cc1ccc(O)cc1)C(=O)Nc1ccc2ccccc2c1 [tyrosine β-naphthylamide]
- neuroprotective activity (structure/function) ([1]; Example 14): enhance neuroprotective effects

Compound: N[C@@H](Cc1ccc(O)cc1)C(=O)O [tyrosine]
- protective effect [1]: no protective effect
- neuroprotective activity (structure/function) ([1]; Example 14): little or no neuroprotective activity

Compound: Aβ1-42Gln13Gln14: synthetic peptide Aβ1-42Gln13Gln14
- induction of neurotoxic microglia / neuron killing [4]: unable to elicit neurotoxic responses
- inhibition of SpheresAβ1-42 binding by peptides (microglia): unable to block

Compound: Aβ10-42: Aβ peptide residues 10-42 (YEVHHQKLVFFAEDVGSNKGAIIGLMVGGVVIA; Amyloid-beta protein 42; UniProt P05067 681-713, looked up, fragment)
- binding of peptide-coupled microspheres to microglia (rat microglia): bound to microglia

Compound: Aβ17-43-microspheres: Aβ17-43 coupled to fluorescent microspheres (LVFFAEDVGSNKGAIIGLMVGGVVIAT; also: coupled to fluorescent microspheres; UniProt P05067 688-714, looked up, fragment)
- binding of peptide-coupled microspheres to microglia (rat microglia): no consistent association with microglia
- binding of peptide-coupled microspheres to microglia (rat microglia; listed as Aβ17-43 coupled microspheres): not engulfed by microglia

Compound: Aβ36-42: Aβ peptide residues 36-42 (VGGVVIA; Amyloid-beta protein 42; UniProt P05067 707-713, looked up, fragment)
- binding of peptide-coupled microspheres to microglia (rat microglia): little cell binding
- inhibition of SpheresAβ1-42 binding by peptides (microglia): did not
- blocking of Aβ1-42 induced microglial neurotoxicity by peptides ([2]; 10 μmoles/liter peptide, 1 μmole/liter Aβ1-42): did not

Compound: chondroitin sulfate
- inhibition of SpheresAβ1-42 binding by GAGs and scavenger receptor ligands (microglia): only heparin sulfate blocked; also recorded: not similar compounds

Compound: heparin sulfate
- inhibition of SpheresAβ1-42 binding by GAGs and scavenger receptor ligands (microglia): blocked; also recorded: reduction of binding
- inhibition of SpheresAβ1-42 binding by GAGs and scavenger receptor ligands (microglia; listed as heparan sulfate): block Aβ binding to microglia

Compound: tyrosine butyl ester
- protective effect [1]: neuron survival was markedly enhanced
